Assays:
Assay type in all cases: cell-based, human
[1] = tested on: six breast cancer cell lines; assay: carboplatin-DNA monoadducts by AMS in cell culture; details: 4 hours exposure, range over cell lines and time points
Protocol: Cells were seeded in 60-mm dishes at a density of 1×10^6 cells/dish and allowed to attach overnight in a 37° C. humidified atmosphere containing 5% C02. Cells were treated with 1 μM (a relevant microdose concentration) and 100 μM (a therapeutically relevant concentration) carboplatin. Both the microdose and the therapeutic cell culture treatments included 0.3 μM of [^14C]carboplatin at a final concentration 50,000 dpm/ml for 4 hours, followed by washing and incubation in culture medium free of carboplatin. […] The number of carboplatin-DNA monoadducts was calculated based on the ^14C content in genomic DNA as measured by AMS. […] The concentration of the DNA was determined by its absorption at 260 nm using a Nanodrop spectrophotometer, and then the samples were stored frozen at −80° C. For AMS analysis, a DNA sample was thawed, mixed well by vortexing, and 1-10 μg of DNA was then submitted for AMS analysis, which includes the addition of 1.0 mg of tributyrin as a carrier, followed by combustion to CO2 and reduction to graphite according to published protocols (Ognibene, Ted J., et al. “A high-throughput method for the conversion of CO2 obtained from biochemical samples to graphite in septa-sealed vials for quantification of 14C via accelerator mass spectrometry.” Analytical chemistry 75.9 (2003): 2192-2196). […]

A549, H1975 and HCC827 = assay: carboplatin-DNA monoadducts by AMS, average of resistant NSCLC lines; details: three resistant cell lines
Protocol: NSCLC cell lines were cultured to >90% confluence, dosed with [^14C]carboplatin, and subjected to DNA isolation and AMS analysis. 60 mm dishes were seeded at a density of 1×10^6 cells/dish and allowed to attach overnight in a 37° C. humidified atmosphere containing 5% CO2. At hour 0, cells were dosed with 1 μM (relevant microdose concentration) or 100 μM carboplatin (therapeutically relevant concentration), each comprising 0.3 μM [^14C]carboplatin (50,000 dpm/ml). Cells were incubated with [^14C]carboplatin for 4 h before washing and cultured with carboplatin-free medium to mimic the in vivo carboplatin half-life (1.3-6 hours) in patients. DNA was harvested from the cell lines at hours 0, 2, 4, 8 and 24 hours after initial dosing. Ten micrograms of DNA per sample was converted to graphite and measured by AMS for ^14C/total C quantification. Triplicate sets of AMS experiments were performed for each cell line and time point. The 14C/total C ratio was converted to 14C atoms per DNA base-pair according to the algorithm described herein to provide values of carboplatin-DNA monoadducts per 10^8 nucleotides. The data was plotted as carboplatin-DNA monoadducts per 10^8 nucleotide (nt) vs time (FIGS. 8A and 8B). There was a time-dependent increase in the carboplatin-DNA monoadduct concentration during the first 4 hours of incubation with therapeutic or microdosing carboplatin (FIGS. 8A and 8B). […]

5637 = assay: MTT assay IC50, bladder cancer cell line; details: 72 hours
Protocol: Thus, we measured the IC50 of the six NSCLC cell lines from Example 2 to both cisplatin and carboplatin to determine if the sensitivity of these six NSCLC cell lines to the two drugs are correlated.
Drug-DNA adduct formation and repair was measured by accelerator mass spectrometry.
These two cell lines were also cultured with a range of concentrations of cisplatin, carboplatin, gemcitabine, doxorubicin, methotrexate and vinblastine for 72 hours to determine IC50 for these other drugs (FIG. 16C). These drugs were chosen because of their frequent use in the treatment of bladder cancer.

## N.N.O=C([O-])C1(C(=O)[O-])CCC1.[Pt+2] [carboplatin]
[1]; microdose 1 μM carboplatin
  DNA damage concentrations (carboplatin-DNA monoadducts): 1-15 monoadducts per 10^8 nt
[1]; therapeutic dose 100 μM carboplatin
  DNA damage concentrations (carboplatin-DNA monoadducts): 100-1500 monoadducts per 10^8 nt
A549, H1975 and HCC827; microdosing
  average area under curve (AUC) of carboplatin-DNA monoadducts: 43.36±9.55 hr-monoadducts per 10^8 nt
A549, H1975 and HCC827; therapeutic dosing
  average area under curve (AUC) of carboplatin-DNA monoadducts: 3916.7±1280.0 hr-monoadducts per 10^8 nt
5637
  IC50: 24.3 µM
5637; listed as Carboplatin
  IC50: 24.35 ± 0.12 µM

From patent publication US20200010910A1, “Cytotoxic Chemotherapy-Based Predictive Assays for Acute Myeloid Leukemia” (The Regents of The University of California, priority 2017, published 2020)
